Reference: publication PMC5302078 (Journal of Biomolecular Screening, 2016)

Target: T1, breast cancer resistance protein (BCRP) (Homo sapiens, UniProt Q9UNQ0)
T1 sequence (Q9UNQ0 1-655): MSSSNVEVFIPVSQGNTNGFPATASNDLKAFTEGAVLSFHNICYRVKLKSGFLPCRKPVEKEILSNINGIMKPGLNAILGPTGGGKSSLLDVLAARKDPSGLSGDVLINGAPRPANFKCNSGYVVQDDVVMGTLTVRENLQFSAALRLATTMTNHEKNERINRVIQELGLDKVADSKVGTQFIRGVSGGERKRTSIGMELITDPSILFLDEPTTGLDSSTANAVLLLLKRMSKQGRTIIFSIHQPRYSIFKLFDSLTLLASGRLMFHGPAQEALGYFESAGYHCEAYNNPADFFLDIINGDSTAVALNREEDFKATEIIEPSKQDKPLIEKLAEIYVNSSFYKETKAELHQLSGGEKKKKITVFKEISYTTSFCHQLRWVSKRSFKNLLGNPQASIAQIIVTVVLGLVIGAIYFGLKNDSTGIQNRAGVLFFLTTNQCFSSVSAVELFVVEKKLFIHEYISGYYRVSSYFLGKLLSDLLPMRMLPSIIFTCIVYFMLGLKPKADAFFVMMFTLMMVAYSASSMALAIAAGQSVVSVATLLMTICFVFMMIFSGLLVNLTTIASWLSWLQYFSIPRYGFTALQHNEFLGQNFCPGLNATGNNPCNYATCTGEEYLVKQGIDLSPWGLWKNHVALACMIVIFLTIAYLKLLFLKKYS
Experiment: mitoxantrone accumulation in BCRP-overexpressing PLB985 cells, flow cytometry
Type: cell-based

Compound	IC50
COc1cc(N)c(Cl)cc1C(=O)NC1CCN(CCCOc2ccc(F)cc2)CC1OC (centres unmarked) [cisapride]	400 ± 100 nM
O=C(Nc1c(Cl)cncc1Cl)c1ccc(OC(F)F)c(OCC2CC2)c1 [roflumilast]	900 ± 200 nM
